In patent US20240092799A1, “MNK INHIBITORS” (Hepagene Therapeutics (HK) Limited, priority 2020, published 2024) one finds IC50 data, which are given here for 21 compounds.

Each structure is given as a SMILES string.

MNK2, sequence (Q9HBH9 whole entry): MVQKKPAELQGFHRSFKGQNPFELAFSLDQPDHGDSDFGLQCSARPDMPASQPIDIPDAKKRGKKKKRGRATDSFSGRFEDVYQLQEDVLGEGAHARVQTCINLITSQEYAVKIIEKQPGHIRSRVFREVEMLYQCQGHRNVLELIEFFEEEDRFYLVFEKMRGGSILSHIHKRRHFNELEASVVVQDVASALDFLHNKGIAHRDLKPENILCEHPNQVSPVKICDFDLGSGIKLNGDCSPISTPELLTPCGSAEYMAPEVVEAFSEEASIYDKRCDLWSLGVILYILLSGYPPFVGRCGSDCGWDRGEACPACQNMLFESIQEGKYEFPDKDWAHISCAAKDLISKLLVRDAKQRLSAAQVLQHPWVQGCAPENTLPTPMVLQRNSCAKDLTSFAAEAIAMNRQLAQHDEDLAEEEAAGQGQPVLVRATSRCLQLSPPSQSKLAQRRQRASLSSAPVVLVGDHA

The test concerns the target MNK2 (Homo sapiens (Human), UniProt Q9HBH9). The test can be described thus: MNK Biochemical Enzymatic Assay (ADP-Glo), MNK2 binding assay. Here is the method:
MNK Biochemical Enzymatic Assay. This protocol establishes the binding assays for MNK1 and MNK2 using ADP-Glo assay. MNK phosphorylates the substrate and converts ATP to ADP, which was detected by Envision and used to reflect the reminding activity of MNK. Reagents and equipment used in the assay are listed below, followed by the protocol.
• a) Add 50 μL compound to 384-well dilution plate • b) Dilute compound 1:3 in succession in DMSO for each column for 10+0 pts (refer to dilution plate map) • c) Transfer 0.1 μL diluted compound solution in each row to 384 assay plate using Echo, each column containing 2 replicates (refer to assay plate map) • d) Add 5 μL enzyme working solution to 384-well assay plate, centrifuge 1000 RPM for 1 min • e) Incubate at 25° C. for 15 min • f) Add 5 μL substrate working solution to initiate reaction • g) Incubate at 25° C. for 60 min • h) Add 10 μL ADP Glo reagent, centrifuge 1000 RPM for 1 min • i) Incubate at 25° C. for 60 min • j) Add 20 μL kinase detection reagent, centrifuge 1000 RPM for 1 min • k) Incubate at 25° C. for 60 min • l) Read on Envision for US LUM as RLU • m) Data analysis: IC50s were determined based on a non-linear regression analysis of data collected.
On the technique in general: In ADP-Glo the light output rises with the ADP produced.
The compound `Cc1c(NC(=O)C2CC2)ncnc1Nc1cc2c(s1)C(=O)NC21CCCCC1` [Compound XX-C, N-(5-Methyl-6-((6′-oxo-5′,6′-dihydrospiro[cyclohexane-1,4′-thieno[2,3-c]pyrrol]-2′-yl)amino)pyrimidin-4-yl)cyclopropanecarboxamide] showed an IC50 of 100 to 1000 nM.
To `O=C1NC2(CCCCC2)c2cc(Nc3cc(Nc4ccncc4)ncn3)sc21` [Compound XXIII-O, 2′-((6-(pyridin-4-ylamino)pyrimidin-4-yl)amino)spiro[cyclohexane-1,4′-thieno[2,3-c]pyrrol]-6′(5′H)-one] belongs 10 to 100 nM; to `O=C1NC2(CCCCC2)c2cc(Nc3ncnc4sc5c(c34)CCCC5)sc21` [Compound XXIII-F, 2′-((5,6,7,8-Tetrahydrobenzo[4,5]thieno[2,3-d]pyrimidin-4-yl)amino)spiro [cyclohexane-1,4′-thieno[2,3-c]pyrrol]-6′(5′H)-one], 10 to 100 nM; to `Cc1cc(-c2cc(-c3cc(N)ncn3)no2)c(=O)n2c1C(=O)NC21CCCCC1` [Compound XVIII, 6′-(3-(6-Aminopyrimidin-4-yl)isoxazol-5-yl)-8′-methyl-2′H-spiro[cyclohexane-1,3′-imidazo[1,5-a]pyridine]-1′,5′-dione], greater than 1000 nM.
`COCCNc1cc(Nc2cc(C)c3c([n+]2[O-])C2(CCCCC2)NC3=O)ncn1` [Compound XXIX-B, 2′-((6-((2-methoxyethyl)amino)pyrimidin-4-yl)amino)-4′-methyl-5′-oxo-5′,6′-dihydrospiro[cyclohexane-1,7′-pyrrolo[3,4-b]pyridine] 1′-oxide] registered an IC50 of 10 to 100 nM.
Turning to `Cc1cc(Nc2cc(NC(=O)c3ccccn3)ncn2)[n+]([O-])c2c1C(=O)NC21CCCCC1` [Compound XXIX-AAF, 4′-methyl-5′-oxo-2′-((6-(picolinamido)pyrimidin-4-yl)amino)-5′,6′-dihydrospiro[cyclohexane-1,7′-pyrrolo[3,4-b]pyridine] 1′-oxide], the IC50 fell in the range of 10 to 100 nM.
In turn, `Cc1cc(Nc2cc(NC3CCOCC3)ncn2)[n+]([O-])c2c1C(=O)NC21CCCCC1` [Compound XXIX-R, 4′-methyl-5′-oxo-2′-((6-((tetrahydro-2H-pyran-4-yl)amino)pyrimidin-4-yl)amino)-5′,6′-dihydrospiro[cyclohexane-1,7′-pyrrolo[3,4-b]pyridine] 1′-oxide] displayed an IC50 of 100 to 1000 nM.
To `Cc1cc(Nc2cc(Nc3cccnc3)ncn2)[n+]([O-])c2c1C(=O)NC21CCCCC1` [Compound XXIX-AJ, 4′-methyl-5′-oxo-2′-((6-(pyridin-3-ylamino)pyrimidin-4-yl)amino)-5′,6′-dihydrospiro[cyclohexane-1,7′-pyrrolo[3,4-b]pyridine] 1′-oxide] belongs 10 to 100 nM.
To `Cc1cc(Nc2cc(Nc3ccncc3)ncn2)[n+]([O-])c2c1C(=O)NC21CCCCC1` [Compound XXIX-AK, 4′-methyl-5′-oxo-2′-{[6-(pyridin-4-ylamino)pyrimidin-4-yl]amino}-6′H-Spiro[cyclohexane-1,7′-pyrrolo[3,4-b]pyridin]-1′-ium-1′-olate] belongs 10 to 100 nM.
The figure for `Cc1cc(Nc2ccnc(N[C@H]3CCOC3)c2)[n+]([O-])c2c1C(=O)NC21CCCCC1` [Compound XXIX-H, (S)-4′-methyl-5′-oxo-2′-((2-((tetrahydrofuran-3-yl)amino)pyridin-4-yl)amino)-5′,6′-dihydrospiro[cyclohexane-1,7′-pyrrolo[3,4-b]pyridine] 1′-oxide] is 100 to 1000 nM; for `Cc1cc(Nc2cc(NC3=NC(C)(C)CO3)ncn2)[n+]([O-])c2c1C(=O)NC21CCCCC1` [Compound XXIX-M, 2′-((6-((4,4-dimethyl-4,5-dihydrooxazol-2-yl)amino)pyrimidin-4-yl)amino)-4′-methyl-5′-oxo-5′,6′-dihydrospiro[cyclohexane-1,7′-pyrrolo[3,4-b]pyridine] 1′-oxide] it is 100 to 1000 nM.
In turn, `Cc1cc(Nc2cc(NC(=O)C3CCCC3)ncn2)[n+]([O-])c2c1C(=O)NC21CCCCC1` [Compound XXIX-G, 2′-((6-(cyclopentanecarboxamido)pyrimidin-4-yl)amino)-4′-methyl-5′-oxo-5′,6′-dihydrospiro[cyclohexane-1,7′-pyrrolo[3,4-b]pyridine] 1′-oxide] registered an IC50 of 0.1 to 10 nM.
In the case of `O=C1NC2(CCCCC2)c2cc(Nc3ncnc4sc5c(c34)CCC(C(=O)O)C5)sc21` (stereo not drawn) [Compound XXV-6, 4-((6′-Oxo-5′,6′-dihydrospiro[cyclohexane-1,4′-thieno[2,3-c]pyrrol]-2′-yl)amino)-5,6,7,8-tetrahydrobenzo[4,5]thieno[2,3-d]pyrimidine-7-carboxylic acid], the IC50 is 10 to 100 nM.
The figure for `CC(=O)N1CC[C@H](Nc2cc(Nc3cc(C)c4c([n+]3[O-])C3(CCCCC3)NC4=O)ncn2)C1` [Compound XXIX-J, (S)-2′-((6-((1-acetylpyrrolidin-3-yl)amino)pyrimidin-4-yl)amino)-4′-methyl-5′-oxo-5′,6′-dihydrospiro[cyclohexane-1,7′-pyrrolo[3,4-b]pyridine] 1′-oxide] is 100 to 1000 nM; for `Cc1cc(Nc2cc(NC(=O)N(C)C)ncn2)[n+]([O-])c2c1C(=O)NC21CCCCC1` [Compound XXIX-U, 2′-((6-(3,3-dimethylureido)pyrimidin-4-yl)amino)-4′-methyl-5′-oxo-5′,6′-dihydrospiro[cyclohexane-1,7′-pyrrolo[3,4-b]pyridine] 1′-oxide] it is 10 to 100 nM.
To `Cn1cccc(Nc2cc(Nc3cc4c(s3)C(=O)NC43CCCCC3)ncn2)c1=O` [Compound XXIV-L, 2′-((6-((1-methyl-2-oxo-1,2-dihydropyridin-3-yl)amino)pyrimidin-4-yl)amino)spiro[cyclohexane-1,4′-thieno[2,3-c]pyrrol]-6′(5′H)-one] belongs 100 to 1000 nM; to `O=C1NC2(CCCCC2)c2nc(Nc3cc(N[C@H]4CCCOC4)ncn3)sc21` [Compound XXVIII-D, (S)-2′-((6-((tetrahydro-2H-pyran-3-yl)amino)pyrimidin-4-yl)amino)spiro[cyclohexane-1,4′-pyrrolo[3,4-d]thiazol]-6′(5′H)-one], 10 to 100 nM.
For the compound `Cc1cc(Nc2ncnc3c2CCN3)[n+]([O-])c2c1C(=O)NC21CCCCC1` [Compound XXIX-AB, 2′-((6,7-dihydro-5H-pyrrolo[2,3-d]pyrimidin-4-yl)amino)-4′-methyl-5′-oxo-5′,6′-dihydrospiro[cyclohexane-1,7′-pyrrolo[3,4-b]pyridine] 1′-oxide], the IC50 is 10 to 100 nM.
The figure for `CSc1ncc2c(-c3cc4c(s3)C(=O)NC43CCCCC3)n[nH]c2n1` [Compound XIX, 2′-(6-(Methylthio)-1H-pyrazolo[3,4-d]pyrimidin-3-yl)spiro[cyclohexane-1,4′-thieno[2,3-c]pyrrol]-6′(5′H)-one] is 100 to 1000 nM.
The figure for `CN1CCN(c2cc(Nc3cc4c(s3)C(=O)NC43CCCCC3)ncn2)CC1` [Compound XXIII-M, 2′-((6-(4-Methylpiperazin-1-yl)pyrimidin-4-yl)amino)spiro[cyclohexane-1,4′-thieno[2,3-c]pyrrol]-6′(5′H)-one] is greater than 1000 nM.
To `Cc1cc(Nc2cc(N[C@@H]3CCOC3)ncn2)[n+]([O-])c2c1C(=O)NC21CCCCC1` [Compound XXIX-AX, (R)-4′-methyl-5′-oxo-2′-((6-((tetrahydrofuran-3-yl)amino)pyrimidin-4-yl)amino)-5′,6′-dihydrospiro[cyclohexane-1,7′-pyrrolo[3,4-b]pyridine] 1′-oxide] belongs 10 to 100 nM.

Usually IC50 stands for the point on the concentration scale where inhibition reaches its midpoint. Higher therefore signals lower potency.
